According to US9951271B2, “Process for making an asymmetric fluorophore” (UNITED STATES OF AMERICA, AS REPRESENTED BY THE SECRETARY …, priority 2015, dated 2018):

Tests used:
[1] = test system: NIH 3T3 cells; assay: Basal cytotoxicity MTS assay (cell viability); type: cell-based; settings: concentrations below 10 μM, 72-hour incubation, FIG. 6
Protocol: On day one, 5,000 cells per well were plated on a clear 96-well plate (Corning Costar, TC-treated) along with several blank wells with media only. The next day, the media was replaced with 180 μL of DPBS with glucose and 20 μL of 4 (final concentrations from 30 μM to 1 nM were tested, final DMSO concentration=0.1%) and incubated for 30 minutes. The dye solution was removed from the wells and 200 μL of fresh media was added to each well in the plate. The plate was then incubated (37° C., 5% CO2) for 72 hours. Then 40 μL of MTS (Promega, CellTiter 96® AQueous One Solution Cell Proliferation Assay) was added to each well and the plate was incubated (37° C., 5% CO2) for 4 hours. The absorbance of each well at 540 nm was measured on a Synergy HT plate reader (BioTek Instruments, Inc.). All assays were performed in triplicate on three separate plates.

[2] = test system: NIH 3T3 cells; assay: Fixed cell imaging (whole-cell staining); type: cell-based; settings: fixed NIH 3T3 cells, 1 μM
Protocol: NIH 3T3 cell line was obtained from ATCC (Manassas, Va.) and cultured routinely using sterile technique. Cell culture media consisted of DMEM supplemented with 10% FBS and 4 mM GlutaMax (Life Technologies). Both live and fixed cell automated microscopy was performed on a Zeiss AxioObserver Z1 (Carl Zeiss MicroImaging Inc., Jena, Germany) with an EC Plan-Neofluar 10×/0.30 Ph 1 objective (Carl Zeiss, Jena, Germany), and a Coolsnap HQ2 camera (Photometrics, Tucson, Ariz.). All fluorescent microscopy images were collected using a HE38 filter set (Carl Zeiss, Jena, Germany), a Colibri.2 LED light source at 100% intensity, and an exposure time of either 200 ms or 1 second. Performance benchmarking of the fluorescence microscope was performed daily. […] ImageJ (National Institutes of Health, Bethesda, Md.) was used to create figures and to determine the mean fluorescence intensity of cells.
One day prior to imaging, NIH 3T3 cells were seeded at 20,000 cells per well in a 24-well plate (Corning Costar, TC-treated). […] Using ImageJ (National Institutes of Health, Bethesda, Md.) individual cell fluorescence intensities were measured by first segmenting the 8-bit tiff image for the 4/CFSE/FNHS channel by manually finding the minimum intensity below which object boundaries began to expand into the background (the built-in watershed algorithm was also utilized to separate touching objects). […]

[3] = Photophysical characterization (UV-Vis, fluorescence emission, relative quantum yield); type: physicochemical
Protocol: The UV-Vis and fluorescence emission spectra were recorded on a Synergy HT (BioTek Instruments, Inc.) multi-detection microplate reader equipped with a 10 W Xe flash light source for absorbance and a 20 W tungsten quartz halogen source for fluorescence. Relative quantum yields were determined using rhodamine 6G in ddH2O as a reference while keeping instrument temperature and parameters constant. Serial dilutions of the asymmetric fluorophore (6) were made from a methanol stock; therefore, all dilutions of asymmetric fluorophore (6) were kept at 10% MeOH in water. All fluorescent spectra were intensity corrected using NIST SRM 2941 (excitation wavelength at 427 nm, scan emission monochromator from 450 nm to 650 nm using a 1 nm increment).

[4] = test system: NIH 3T3 cells; assay: Live cell imaging (whole-cell staining); type: cell-based; settings: live NIH 3T3 cells; for staining pattern compared under same conditions and concentrations: 100 nM, FIG. 3
Protocol: NIH 3T3 cell line was obtained from ATCC (Manassas, Va.) and cultured routinely using sterile technique. Cell culture media consisted of DMEM supplemented with 10% FBS and 4 mM GlutaMax (Life Technologies). Both live and fixed cell automated microscopy was performed on a Zeiss AxioObserver Z1 (Carl Zeiss MicroImaging Inc., Jena, Germany) with an EC Plan-Neofluar 10×/0.30 Ph 1 objective (Carl Zeiss, Jena, Germany), and a Coolsnap HQ2 camera (Photometrics, Tucson, Ariz.). All fluorescent microscopy images were collected using a HE38 filter set (Carl Zeiss, Jena, Germany), a Colibri.2 LED light source at 100% intensity, and an exposure time of either 200 ms or 1 second. Performance benchmarking of the fluorescence microscope was performed daily. All imaging was done on the same day on the same microscope to decrease variations in image intensities. ImageJ (National Institutes of Health, Bethesda, Md.) was used to create figures and to determine the mean fluorescence intensity of cells.
One day prior to imaging, NIH 3T3 cells were seeded at 10,000 cells per well in a 24-well plate (Corning Costar, TC-treated). After 24 hours of incubation (37° C., 5% CO2), the media was removed from the plate and cells were washed once with DPBS (Ca and Mg free, Life Sciences). A total of 320 μL of DPBS with glucose was added to each well, and then 40 μL of Hoechst 33342 (final concentration of 0.5 μg/mL) and 40 μL of 4 (final concentrations from 10 μM to 1 nM were tested, final DMSO concentration=0.1%) or CFSE (final concentrations from 10 μM to 1 nM were tested, final DMSO concentration=0.1%). […] Using ImageJ (National Institutes of Health, Bethesda, Md.) individual cell fluorescence intensities were measured by first segmenting the 8-bit tiff image for the 6/CFSE/FNHS channel by manually finding the minimum intensity below which object boundaries began to expand into the background (the built-in watershed algorithm was also utilized to separate touching objects). Using a histogram of object sizes, the minimal object area was chosen and pixel intensity for each of those objects were recorded. […]

[5] = Aqueous solubility of the fluorophore; type: physicochemical; settings: pH independent, diluted to 0.1% DMSO from 100 mM DMSO stock
Protocol: The resulting fluorophore (6) was soluble in aqueous solutions (pH independent) up to […] and was diluted down to 0.1% DMSO from a 100 mM, 100% DMSO stock solution. […] Compound (6) has a sharp fluorescence peak and high quantum yield.

Compound | change in cell viability [1] | fluorescence intensity relative to FNHS (quantitative image analysis) ([2]; FIG. 4) | brightness by visual appearance versus FNHS ([2]; same conditions, FIG. 5) | emission ([3]; 10% aqueous methanol, FIG. 1) | maximum excitation ([3]; 10% aqueous methanol, FIG. 1) | relative quantum yield ([3]; 10% aqueous methanol, reference rhodamine 6G in ddH2O) | maximum absorption ([3]; water (10% MeOH), FIG. 1 legend) | maximum excitation (excited at 500 nm) ([3]; water (10% MeOH), excited at 500 nm, FIG. 1 legend) | staining pattern compared under same conditions and concentrations [4] | staining of live cells (membrane crossing, localisation) ([4]; 30 minutes of staining, 1 μM, FIG. 2) | soluble in aqueous solutions [5]
CC1=C(CCC(=O)ON2C(=O)CCC2=O)C(C)=[N+]2C1=Cc1cccn1[B-]2(F)F [Compound 6, 4,4-difluoro-1,3-dimethyl-4-bora-3a,4a-diaza-s-indacene-2-propionic acid N-hydroxysuccinimide ester] | no significant change in cell viability | three fold brighter than FNHS | appeared brighter than FNHS | 516 nm | 502 nm | 0.84 | 502 nm | 516 nm | less diffuse staining | crossed the cell membrane and stained the cytoplasmic regions with some nuclear staining | up to 1 μM
carboxyfluorescein succinimidyl ester [CFSE, reference compound] | – | – | – | – | – | – | – | – | more diffuse staining pattern | – | –
